Test results published in patent US8440675B2, “Potentiator of radiation therapy” (Taiho Pharmaceutical Co., Ltd., priority 2006, dated 2013).
Several values for one entry are separate records, joined by “and”; a condition that tells them apart may be missing. Equal values may be shown once.

Key:
Type in all cases: in vivo
mouse = test: No observed adverse effect level on peroral administration to a mouse for 14 days; settings: perorally administered to a mouse for 14 days; TAS-102 dose as reduced to FTD
Procedure: α,α,α-Trifluorothymidine (hereinafter abbreviated as FTD) and TPI were suspended in a 0.5% (w/v) HPMC solution to adjust their concentrations to 5.0 mg/mL and 2.65 mg/mL, respectively, and the suspension was stirred at room temperature for about 10 minutes. Subsequently, the suspension was ultrasonicated under ice cooling, to thereby prepare a drug liquid with a dose of 50 mg/kg/day (as reduced to FTD). Hereinafter, the drug liquid is referred to as TAS-102. The dose of the TAS-102 liquid is a “no observed adverse effect level” when the liquid is perorally administered to a mouse for 14 days.
FTD was suspended in a 0.5% (w/v) HPMC solution to adjust their concentrations to 5.0 mg/mL, and the suspension was stirred at room temperature for about 10 minutes. Subsequently, the suspension was ultrasonicated under ice cooling, to thereby prepare a FTD drug liquid with a dose of 50 mg/kg/day. The dose of FTD is a “no observed adverse effect level” when the liquid is perorally administered to a mouse for 14 days.

[1] = tested on: human lung cancer strain (LC-11); test: Test Example 4: anti-tumor effect of TAS-102 or FTD with or without X-ray irradiation in LC-11-transplanted nude mice
[2] = tested on: human lung cancer strain (LC-11); test: Test Example 2: anti-tumor effect of TPI or TUPI with or without X-ray irradiation in LC-11-transplanted nude mice; settings: for RTV Day 15 / RTV Day 22 / RTV Day 29: mean ± S.D.
Procedure: TPI was suspended in a 0.5% (w/v) HPMC solution to adjust the concentration to 1.5 or 5.0 mg/mL, and the suspension was stirred at room temperature for about 10 minutes by means of a stirrer. Subsequently, the suspension was ultrasonicated under ice cooling for about five minutes, to thereby prepare a TPI drug liquid with a dose of 15 mg/kg/day or 50 mg/kg/day.
5-Chloro-6-aminouracil (hereinafter abbreviated as TUPI) was suspended in a 0.5% (w/v) HPMC solution to adjust the concentration to 5.0 mg/mL, and the suspension was stirred at room temperature for about 10 minutes by means of a stirrer. Subsequently, the suspension was ultrasonicated under ice cooling for about five minutes, to thereby prepare a TUPI drug liquid with a dose of 50 mg/kg/day.
By means of a radiation apparatus (model: MBR-1505R2, product of Hitachi Medical Corp.), mice were irradiated with X-rays under such irradiation conditions that the unit dose to one mouse was adjusted to 2 Gy or 5 Gy, by controlling the distance from the radiation source to the mouse. Specifically, radiation was applied locally to the right femoral region of each mouse where cells of a human tumor strain had been transplanted. In order to avoid systemic irradiation, the mouse was placed in a lead box so that only the right leg was exposed to the radiation.
The human lung cancer strain (LC-11) subcutaneously transplanted into the back of a BALB/cA-nu mouse and grown beforehand were removed, cut into small pieces (about 2×2 mm^2) with scissors in physiological saline, and subcutaneously transplanted into the right femoral region of 5- to 6-week-old mice of the same strain with a transplantation needle. The thus-treated mice were bred for adaptation for at least 1 to 2 weeks and divided into a control group, radiation-only groups, drug-only groups, and radiation-drug combination groups, each group consisting of 6 mice, such that the average tumor volume and the standard deviation (S.D.) were equalized to a maximum extent between groups. Then, administration of the drug and irradiation were started. To each of the mice of the groups subjected to drug administration, the aforementioned TPI liquid or TUPI liquid was perorally administered, by means of an oral administration probe, once a day at a dose of 0.1 mL/10 g-body weight for 14 continuous days. The mice of the groups subjected to radiation were irradiated with X-rays at a dose of 2 Gy or 5 Gy through the aforementioned method within about one hour after administration of the TPI liquid or the TUPI liquid on the test day 1 and day 8. To the cancer-bearing mice of the control group (non-radiation/non-drug administration group) and those of the radiation-only groups, only 0.5% HPMC liquid was perorally administered through the same method for 14 continuous days.
The tumor volume of each mouse of the above groups, which was calculated by the equation 1 in Test Example 1, was determined before the start of the treatment test, and on day 3, day 5, day 8 (1 week after), day 11, day 15 (after termination of administration, 2 weeks after), day 18, day […], day 25, and day 29 (4 weeks after). A relative tumor volume (RTV) to the tumor volume at the start of the test was obtained for each mouse. […] Then, the average tumor growth inhibition rate (IR: %) with respect to the control group was calculated on day 15, day 22, and day 29 (after termination of the treatment period) in a manner similar to that of Test Example 1.

[3] = 50 mg/kg (as reduced to FTD) p.o. once a day for 14 days + X-ray 2 Gy on day 1 and day 8
[4] = 50 mg/kg (as reduced to FTD) p.o. once a day for 14 days, no X-ray
[5] = 50 mg/kg p.o. once a day for 14 days + X-ray 2 Gy on day 1 and day 8
[6] = 50 mg/kg p.o. once a day for 14 days, no X-ray

O=c1[nH]c(=O)n([C@H]2C[C@H](O)[C@@H](CO)O2)cc1C(F)(F)F [FTD, α,α,α-Trifluorothymidine]
no observed adverse effect level (mouse): 50 mg/kg/day | IR (%) Day 15 [1, 3]: 35.8% | IR (%) Day 22 [1, 3]: 48.6% | IR (%) Day 29 [1, 3]: 58.5% | IR (%) Day 15 [1, 4]: 52% and 51.8% | IR (%) Day 22 [1, 4]: 57% and 57.2% | IR (%) Day 29 [1, 4]: 59% | potentiation of anti-tumor effect of X-ray radiation (in words) ([1]; 50 mg/kg + X-ray 2 Gy): the anti-tumor effect did not increase

Nc1[nH]c(=O)[nH]c(=O)c1Cl [TUPI, 5-Chloro-6-aminouracil, reference compound]
IR (%) Day 15 [2, 5]: 36.6% | IR (%) Day 22 [2, 5]: 41.2% | IR (%) Day 29 [2, 5]: 50.2% | RTV Day 15 [2, 5]: 3.2 ± 0.8 | RTV Day 22 [2, 5]: 5.3 ± 1.7 | RTV Day 29 [2, 5]: 8.8 ± 2.5 | IR (%) Day 15 [2, 6]: 12.7% | IR (%) Day 22 [2, 6]: 17.5% | IR (%) Day 29 [2, 6]: 21.4% | RTV Day 15 [2, 6]: 4.4 ± 1.8 | RTV Day 22 [2, 6]: 7.4 ± 3.3 | RTV Day 29 [2, 6]: 14.0 ± 6.3 | anti-tumor effect of the drug singly administered (in words) ([2]; 50 mg/kg, no X-ray): virtually no anti-tumor effect | potentiation of anti-tumor effect of X-ray radiation (in words) ([2]; drug + X-ray 2 Gy): no potentiation of anti-tumor effect was observed
